Values joined by “and” are separate entries in the source; they are usually repeats but may differ in a detail not shown here. Identical values can stand only once.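 How tested: cells in 96-well plates exposed to compound for 48 hours at five concentrations. Abbreviation: GI50, concentration required for 50% inhibition of growth. TGI: total growth inhibition.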 Where a SMILES comes first, the peptide text is derived from it. [ ]: non-standard residue; d: D form. Ac5c = NC1(C(=O)O)CCCC1
Tested on: EKVX NSCLC
Experiment: inhibition of tumour cell growth, NCI panel, 48 h

SMILES | GI50 [µM] | TGI
O=C(O[C@H]1CN[C@H](C#Cc2cc3ncnc(Nc4ccc5c(ccn5Cc5cc(F)ccc5F)c4)c3s2)C1)N1CCOCC1 | 0.119 | 2.04 µM
CC(=O)c1c(C)[nH]c(-c2nc3ccc(N4CCN(C)CC4)cc3[nH]2)c1-c1ccc(OCC2CCOCC2)cc1 | 8.36 | 37.2 µM
Cc1nc2sc(C(=O)Nc3cccc(Cl)c3C)c(N)c2cc1C(=O)/C=C/c1ccccc1 | 1.12 | 5.69 µM
C=C1C(=O)O[C@H]2[C@H]1CC/C(CNC(=O)c1cc3cc(OC)ccc3[nH]1)=C\CC[C@@]1(C)O[C@@H]21 | 1.28 | 3 µM
O=S(=O)(NC1=NCCN1C(=S)SN1CCn2c1nsc2=S)c1ccc(Br)cc1 | 2.39 | 95.1 µM
CC(=O)N[C@H]1C=C[C@@H]2/C=C(C)/C=C/[C@@H](C)[C@H]([C@H](C)[C@H](O)[C@@H](C)NC(C)=O)OC(=O)/C=C/C=C(C)\C=C\[C@]2(C)C1 |  | 4.65 µM and > 45 µM
O=C1c2ccccc2-c2c1c1ccccc1c(=O)n2CCCNCCCn1ccnc1 | 4.75 | 12.2 µM
ClCc1cccc(Cn2cnc3c(NC45CC6CC(CC(C6)C4)C5)ncnc32)c1 | 18.6 | 40.7 µM
COC(=O)c1cc2c(cc1Cl)SC(N(N(C)C)S(=O)(=O)c1ccc(Br)s1)=NS2(=O)=O | 25.3 | 61 µM
O=c1c2cc(Cl)ccc2oc2ccc(OCCCCCN3CCCCC3)cc12 | 6.25 | 13.2 µM
O=C1c2ccccc2C(=O)N1CCCSc1ccccc1 |  | > 100 µM
CCOC(=O)Nc1nc2ccc(Cn3cccc3)cc2[nH]1 |  | > 100 µM
COc1cc(Nc2nccc(Nc3ccc4c(C)[nH]nc4c3)n2)cc(OC)c1OC | 1.87 | 9.19 µM
COc1ccc(/C=N\NC(=O)CN2CCN(c3cc4c(cc3F)c(=O)c(C(=O)N/N=C/c3ccc(OC)c(OC)c3)cn4C3CC3)CC2)cc1OC | 6.06 | > 100 µM

Tested on: HL-60(TB) leukemia
Experiment: inhibition of tumour cell growth, NCI panel, 48 h

SMILES | TGI [µM] | GI50 [µM]
COc1ccc([N+](=O)[O-])c2c(NCCCN(C)C)c3ccccc3nc12 | 3.8 | 
CCN1CCN(C(=O)[C@]23CC[C@@H](C)[C@H](C)[C@@H]2C2=CC[C@@H]4[C@@]5(C)C/C(=C/c6ccncc6)C(=O)C(C)(C)[C@@H]5CC[C@@]4(C)[C@]2(C)CC3)CC1 | 4.9 | 1.9
NC1(C(=O)NC2(C(=O)O)CCCC2)CCCC1 (H-[Ac5c]-[Ac5c]-OH) | > 100 | 
COC(=O)CCc1cc(OC)c2c(c1)C(C(=O)OC)C(c1ccc(OC)c(OC)c1)O2 (stereo not drawn) | > 100 | 
CSc1nc(C)c2c(n1)SCC2 | > 10 | 
CC1=C2[C@@H](CC1)[C@]1(C)O[C@@](C3CCCCC3)(C[C@H]1OC(=O)CO)[C@H]2OC(=O)/C=C/c1ccccc1 | 18.3 | 6.48
O=C(O[C@H]1CN[C@H](C#Cc2cc3ncnc(Nc4ccc5c(ccn5Cc5cc(F)ccc5F)c4)c3s2)C1)N1CCOCC1 | 11 | 3.5
CC(=O)c1c(C)[nH]c(-c2nc3ccc(N4CCN(C)CC4)cc3[nH]2)c1-c1ccc(OCC2CCOCC2)cc1 | 0.785 | 0.129
Cc1nc2sc(C(=O)Nc3cccc(Cl)c3C)c(N)c2cc1C(=O)/C=C/c1ccccc1 | 2.13 | 0.575
C=C1C(=O)O[C@H]2[C@H]1CC/C(CNC(=O)c1cc3cc(OC)ccc3[nH]1)=C\CC[C@@]1(C)O[C@@H]21 | 6.37 | 1.97
O=S(=O)(NC1=NCCN1C(=S)SN1CCn2c1nsc2=S)c1ccc(Br)cc1 | 60.1 | 24.3

From PubChem BioAssay (NCI)
